25 compounds from PubChem BioAssay (NCI) can be followed below.

What all share (experiment): inhibition of tumour cell growth, NCI panel, 48 h
The subject of experiment [1] is OVCAR-3 ovarian.
Experiment [2] concerns RXF 393 renal.
The subject of experiment [3] is OVCAR-5 ovarian.
Experiment [4] deals with EKVX NSCLC.
In experiment [5] the test system is SW-620 colon.
The subject of experiment [6] is CAKI-1 renal.
For experiment [7], the system named is ACHN renal.
Experiment [8] deals with MOLT-4 leukemia.
Experiment [9] relates to MALME-3M melanoma.
Experiment [10] concerns SR leukemia.

Several values for one entry are separate records, joined by “and”; a condition that tells them apart may be missing. Equal entries are not always repeated.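 Interpolation was linear, between the two tested concentrations surrounding the appropriate level; five concentrations were tested over 48 hours in 96-well plates. Here, GI50 denotes the concentration required for 50% inhibition of growth. TGI marks complete inhibition of growth.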

In the case of `COc1nc(NC2OC(COC(C)=O)C(OC(C)=O)C(OC(C)=O)C2OC(C)=O)c2c(OC(C)=O)cc(=O)oc2n1` (stereo unspecified), the TGI in experiment [1], in experiment [2], in [3], in experiment [4], in experiment [5] and in experiment [6] was more than 100 µM each time. In addition, the figures for the TGI in experiment [7], in experiment [8] and in experiment [9] were 29.6 µM, more than 100 µM and more than 100 µM, respectively.
On to `CC(=O)O/N=C(/C)c1ccccc1O`, for which the TGI in [1], in experiment [2], in [3], in experiment [4], in [5] and in [6] was more than 100 µM each time. Moreover, the TGI in experiment [7], in experiment [8] and in experiment [9] was more than 100 µM each time.
As for `COc1cccc(-c2nc(-c3ccc(NC(=O)OC(C)C)cc3)[nH]c2-c2ccnc(Br)c2)c1`, the GI50 in experiment [1] is 2.83 µM; in experiment [2] it was 0.282 µM; in [3], 4.43 µM; in experiment [4], 2.45 µM; in experiment [5], 3.32 µM; in [6], 2.49 µM. Further, the GI50 is 2.7 µM in [7], 1.64 µM in experiment [8] and 2.23 µM in [9]. Also, the TGI in experiment [1] is more than 100 µM; in experiment [2] it was 0.87 µM; in experiment [3], more than 100 µM; in experiment [4], 10.3 µM; in experiment [5], more than 100 µM; in experiment [6], more than 100 µM. Also, the values for the TGI in [7], in experiment [8] and in experiment [9] were more than 100 µM, 56 µM and 7 µM, respectively.
With `C=C(C)CCOC(c1ccccc1)(c1ccccc1)c1ccccc1`, the TGI in experiment [1] was more than 100 µM; in [2], 82.8 µM; in experiment [3], more than 100 µM; in experiment [5], more than 100 µM; in experiment [6], more than 100 µM; in [7] it was more than 100 µM. For the same compound, the TGI in experiment [8] and in experiment [9] was more than 100 µM each time.
As to `CCCCN(CCCC)C(=O)C(=O)C(C(=O)c1ccc(OC)cc1)c1ccc(OC)cc1` (stereo unspecified), the TGI in [1], in [2], in [3], in experiment [4], in experiment [5] and in [6] was more than 100 µM in each case. Also, the TGI in experiment [7], in [8] and in experiment [9] was more than 100 µM in each case.
With `O=C(Nc1ccccc1-c1nn(C(=S)Nc2ccccc2)c(=S)n(C(=S)Nc2ccccc2)c1=O)C(F)(F)F`, the TGI in [1] was more than 72.5 µM; in experiment [2] it was more than 100 µM; in experiment [3], more than 100 µM; in experiment [4], 98.2 µM; in [5], more than 64.7 µM; in [6], more than 100 µM. For the same compound, the TGI in experiment [7] is more than 95.6 µM; in experiment [8] it was more than 77.1 µM; in [9] it was more than 79.1 µM.
`COc1ccc(C)cc1-c1cc(Sc2ccccc2)c(-c2cc(C)ccc2OC)o1`: the TGI is more than 31.6 µM in experiment [1]; more than 100 µM in experiment [3]; more than 31.6 µM in experiment [4]; more than 31.6 µM in [5]; more than 31.6 µM in experiment [6]; more than 31.6 µM in [7]. Besides, the TGI in [8] and in experiment [9] was more than 31.6 µM each time.
Turning to `CCCCCCCCCCCCC(O)c1ccc(C#CCCCCCCCCCO)o1` (stereo unspecified), the GI50 in [1] is 19.1 µM; in [2] it was 17.9 µM; in experiment [3], 20.9 µM; in [4] it was 22.2 µM; in experiment [5], 22.7 µM; in [6] it was 18.6 µM. Further, the GI50 in [7] was 18.8 µM; in experiment [8], 4.69 µM. In addition, the TGI amounted to 34 µM in experiment [1]; 35.3 µM in experiment [2]; 39.2 µM in experiment [3]; 43.1 µM in experiment [4]; 41.4 µM in experiment [5]; 33.1 µM in experiment [6]. Also, the values for the TGI in [7] and in experiment [8] were 33.5 µM and 26.7 µM, respectively.
Turning to `C/C(CCn1[nH]c(=O)ccc1=O)=N\NC(=O)C(=O)NN`, the TGI in experiment [1], in [2], in experiment [3], in experiment [4], in [5] and in experiment [6] was more than 100 µM throughout. For the same compound, the TGI in [7], in [8] and in [9] was more than 100 µM in each case.
As to `CN(C)CCn1c2c3ccccc3ccc2c2oc(=O)c3ccccc3c21`, the TGI in experiment [1] turned out to be 16.9 µM; in experiment [3], 90.4 µM; in experiment [4] it was 36.4 µM; in experiment [5] it was 32.4 µM; in experiment [6] it was 25.9 µM; in experiment [7] it was 18.4 µM. Also, the TGI in [8] is 7.25 µM; in [9], 26.3 µM.
Regarding `Oc1[nH]c2ccccc2c1N=Nc1nc(-c2ccc(Br)cc2)cs1`, the TGI in experiment [1] is 67.7 µM; in [2], more than 100 µM; in experiment [3], more than 100 µM; in experiment [4] it was 30.4 µM; in experiment [5], more than 100 µM; in experiment [6], 39.9 µM. The TGI in [7] was 49.1 µM; in experiment [8] it was more than 100 µM.
Consider `c1ccc(NCn2cnc3ccccc32)cc1`, for which the TGI in [1], in experiment [2], in [3], in [4], in experiment [5] and in experiment [7] was more than 100 µM in each case. The TGI in experiment [8] and in experiment [9] was more than 100 µM in each case.
On to `NC(=O)C(=Cn1c(=S)[nH]c2ccc([N+](=O)[O-])cc21)C(N)=O`, for which the TGI in experiment [1], in experiment [2], in experiment [3], in experiment [4], in experiment [5] and in experiment [6] was more than 100 µM each time. The TGI in experiment [7] and in [8] was more than 100 µM throughout.
Regarding `CC1(C)OC1COc1c2occc2cc2ccc(=O)oc12` (stereo unspecified), the TGI in experiment [1], in [2], in experiment [3], in experiment [4], in experiment [5] and in experiment [6] was more than 100 µM in each case. For the same compound, the TGI in experiment [7], in experiment [8] and in experiment [9] was more than 100 µM throughout.
As for `CCCOc1cc2ccccc2cc1C(=O)Nc1nc(N)c2c(ccc3nccc32)[nH]1`, the GI50 was 0.0254 µM in experiment [1]; 0.0426 µM in experiment [2]; 0.911 µM in experiment [3]; 0.398 µM in experiment [4]; 0.0377 µM in [5]; 0.62 µM in [6]. Moreover, the GI50 is 0.0641 µM in [7] and 1.13 µM in experiment [9]. The TGI is 0.0819 µM in [1]; 1.16 µM in experiment [2]; 2.98 µM in [3]; 2.25 µM in experiment [4]; 1.8 µM in experiment [5]; 3.31 µM in experiment [6]. In addition, the results for the TGI in experiment [7] and in [9] were 2.56 µM and 2.62 µM, respectively.
Regarding `CC(C)=CCC(O)C1=CC(=O)c2c(O)ccc(O)c2C1=O` (stereo unspecified), the TGI in experiment [1] was determined as 2.55 µM; in experiment [2], 2.11 µM; in [3], 3.89 µM; in [4] it was 3.02 µM; in experiment [5], 3.3 µM; in experiment [6], 0.986 µM. In addition, the TGI was found to be 1.86 µM in experiment [7] and 0.135 µM in [8].
With `CN(C)CC1CC/C(=C\c2ccc(O)cc2)C1=O` (stereo unspecified), the TGI in experiment [1] was 8.33 µM; in experiment [2], 4.8 µM; in [3] it was 31.6 µM; in [4], 14.4 µM; in experiment [5], 5.33 µM; in experiment [6], 3.24 µM. Also, the TGI in experiment [7] was 10.7 µM; in experiment [8] it was 5.29 µM; in experiment [9], 6.62 µM.
With `COC(=O)C(CCCN1C(=O)c2ccccc2C1=O)C(=O)OC`, the TGI in [1], in experiment [2], in experiment [3], in experiment [4], in experiment [5] and in experiment [6] was more than 100 µM in each case. The TGI in [7], in [8] and in experiment [9] was more than 100 µM each time.
Take `N[C@@H]1CCCC[C@@H]1N.O=P([O-])([O-])CN(CCN(CP(=O)([O-])[O-])CP(=O)([O-])[O-])CP(=O)([O-])[O-].[Pt+2]`: the GI50 in [1], in [2], in [3], in experiment [4], in experiment [5] and in [6] was more than 25 µM throughout. Moreover, the GI50 in [7], in experiment [8] and in [9] was more than 25 µM in each case. The TGI in experiment [1], in [2], in experiment [3], in experiment [4], in experiment [5] and in experiment [6] was more than 25 µM throughout. Moreover, the TGI in [7], in experiment [8] and in experiment [9] was more than 25 µM each time.
With `O=C(Oc1ccc(Cl)cc1)c1ccccc1Nc1ccnc(C(F)(F)F)c1`, the GI50 in [10] was 3.79 µM; in experiment [1], 11.6 µM; in experiment [3] it was 25.6 µM; in experiment [4] it was 25.2 µM; in experiment [5] it was 6.66 µM; in [6], 2.32 µM. The GI50 in [7] is 10.8 µM; in experiment [8], more than 100 µM. The TGI was more than 100 µM in experiment [10]; 26.4 µM in experiment [1]; 84.4 µM in experiment [3]; 64 µM in experiment [4]; 63.3 µM in experiment [5]; 4.67 µM in experiment [6]. Moreover, the values for the TGI in [7] and in experiment [8] were 33.1 µM and more than 100 µM, respectively.
Take `CC(=O)NNc1nc(C)c(C(=O)/C=C/c2ccc(NC(C)=O)cc2)s1`: the TGI in experiment [1], in [2], in [3], in experiment [4], in experiment [5] and in experiment [6] was more than 100 µM in each case. In addition, the TGI in experiment [7], in [8] and in experiment [9] was more than 100 µM throughout.
Take `O=C1CCCCN1c1ccccc1C#C/C=C\C#Cc1ccccc1C(F)(F)F`: the GI50 in experiment [1] was 0.879 µM; in experiment [2] it was 0.526 µM; in experiment [3] it was 3.35 µM; in [4] it was 4.08 µM; in experiment [5], 2.04 µM; in experiment [6], 1.68 µM. Besides, the results for the GI50 in experiment [7], in experiment [8] and in experiment [9] were 2.67 µM, 1.59 µM and 2.29 µM, respectively. Also, the TGI is 2.4 µM in experiment [1]; 2.73 µM in [2]; more than 50 µM in experiment [3]; more than 50 µM in experiment [4]; 46 µM in experiment [5]; 9.83 µM in [6]. Besides, the TGI came to 14.7 µM in experiment [7], 6.96 µM in [8] and 39.2 µM in experiment [9].
On to `CCCCCCCCCCCCCCCC[N+](C)(C)Cc1ccccc1`, for which the GI50 in experiment [1] is 1.21 µM; in experiment [2], 0.606 µM and 0.306 µM; in [6] it was 9.52 µM and 3.74 µM; in experiment [7], 2.43 µM and 2.36 µM; in experiment [9] it was 1.24 µM. In addition, the TGI was 2.53 µM in [1]; 1.97 µM and 1.35 µM in experiment [2]; 35.6 µM and 21.7 µM in experiment [6]; 7.96 µM and 6.53 µM in experiment [7]; 2.72 µM in experiment [9].
Regarding `CCCCCC[C@@H]1CCC2C(CO)[C@@H](O)CC[C@@H]2C1` (stereo partly specified), the TGI in experiment [10] is 53.6 µM; in experiment [1] it was 29.3 µM; in [3], 33.9 µM; in [4], 32.7 µM; in [5], 39.2 µM; in experiment [7], 33.6 µM. For the same compound, the TGI in [8] is 57 µM; in [9] it was 36.1 µM.
For `CC1=C2C(=C[C@@](C)(CO)[C@@H]2O)C(=O)[C@](C)(O)C12CC2`, the TGI is 0.018 µM in experiment [2]; 0.0664 µM and 0.0689 µM in experiment [3]; 0.0678 µM and 0.0153 µM in [4]; 0.074 µM and 0.129 µM in experiment [5]; 0.0878 µM in experiment [7]; 0.0243 µM in experiment [9]. For the same compound, the GI50 in experiment [6] is 0.178 µM; in experiment [7], 0.0189 µM; in [8], 0.0107 µM.
